Where two headings read alike, the source gives them in different places.
How the values were obtained:
HCV replicon = experiment: microbe, parasite or virus in culture; type: cell-based; conditions: Hepatitis C virus, 48 h

Structure (SMILES) | melting point [°C] | IC50 (HCV replicon; read-out: Replicon IC5Os) [µM] | IC50 (HCV replicon; read-out: Replicon IC5Os μM) [µM]
CCCCn1c(-c2ccc(NS(=O)(=O)CC)cc2)c(C#N)c2ccc(OC)cc21 [Compound 707] | 159 to 161 | 0.5 to 2 | 
CCCCn1c(-c2ccc(NS(=O)(=O)C3CC3)cc2)c(C#N)c2ccc(OC)cc21 [Compound 709] | 166 to 168 | < 0.5 | 
CCCn1c(-c2ccc(NS(=O)(=O)CC)cc2)c(C#N)c2cc(OCc3ccccc3)ccc21 [Compound 713] | 199 to 202 | 0.5 to 2 | 
COc1ccc2c(C#N)c(-c3ccc(N4CCCS4(=O)=O)cc3)n(CC(C)C)c2c1 [Compound 717] | 205 to 207 | 0.5 to 2 | 
COc1ccc2c(C#N)c(-c3cccc(NS(C)(=O)=O)c3)n(C3CCCC3)c2c1 [Compound 720] | 172 to 178 | 0.5 to 2 | 
COc1ccc2c(C#N)c(-c3cccc(NC(=O)OC(C)C)c3)n(C3CCCC3)c2c1 [Compound 723] | 175 to 180 | 0.5 to 2 | 
CCn1c(-c2ccc(N3CCN(Cc4ccccc4)S3(=O)=O)cc2)c(C#N)c2ccc(OC)cc21 [Compound 727] | 217 to 218 | 0.5 to 2 | 
CCn1c(-c2ccc(N3CCCC3=O)cc2)c(C#N)c2ccc(OC(C)C)cc21 [Compound 731] | 173 to 174 | < 0.5 | 
COc1ccc2c(C#N)c(-c3ccc(N4CCCC4=O)cc3)n(CCF)c2c1 [Compound 732] | 219 to 221 | 0.5 to 2 | 
COC(=O)Nc1ccc(-c2c(C#N)c3ccc(OC(F)F)cc3n2CC2CC2)cc1 [Compound 734] | 167 to 169 | 0.5 to 2 | 
CCOC(=O)Nc1ccc(-c2c(C#N)c3ccc(OC(F)F)cc3n2CC2CC2)cc1 [Compound 735] | 123 to 125 | < 0.5 | 
CC(C)OC(=O)Nc1ccc(-c2c(C#N)c3ccc(OC(F)F)cc3n2CC2CC2)cc1 [Compound 737] | 153 to 155 | 0.5 to 2 | 
N#Cc1c(-c2ccc(NC(=O)OCCF)cc2)n(CC2CC2)c2cc(OC(F)F)ccc12 [Compound 738] | 149 to 151 | < 0.5 | 
CCCNC(=O)Nc1ccc(-c2c(C#N)c3ccc(OC(F)F)cc3n2CC2CC2)cc1 [Compound 741] | 194 to 196 | < 0.5 | 
CCCCNC(=O)Nc1ccc(-c2c(C#N)c3ccc(OC(F)F)cc3n2CC2CC2)cc1 [Compound 742] | 171 to 173 | 0.5 to 2 | 
N#Cc1c(-c2ccc(NC(=O)NC3CCCC3)cc2)n(CC2CC2)c2cc(OC(F)F)ccc12 [Compound 743] | 129 | < 0.5 | 
COC(=O)Nc1cccc(-c2c(C#N)c3ccc(OC(F)F)cc3n2CC2CC2)c1 [Compound 744] | 92 to 93 | < 0.5 | 
CCCCn1c(-c2ccc(NC(=O)OCCF)cc2)c(C#N)c2ccc(OC)cc21 [Compound 747] | 136 to 137 | < 0.5 | 
CCCCn1c(-c2ccc(NC(=O)NCC)cc2)c(C#N)c2ccc(OC)cc21 [Compound 748] | 186 to 188 | < 0.5 | 
CCCCn1c(-c2ccc(NC(=O)NCCC)cc2)c(C#N)c2ccc(OC)cc21 [Compound 749] | 176 to 178 | < 0.5 | 
CCCCNC(=O)Nc1ccc(-c2c(C#N)c3ccc(OC)cc3n2CCCC)cc1 [Compound 750] | 173 to 174 | < 0.5 | 
CCCCn1c(-c2ccc(NC(=O)NC(C)C)cc2)c(C#N)c2ccc(OC)cc21 [Compound 751] | 159 to 162 | 0.5 to 2 | 

Structure (SMILES) | melting point [°C] | IC50 (HCV replicon; read-out: Replicon IC5Os) [µM] | IC50 (HCV replicon; read-out: Replicon IC5Os μM) [µM]
CCn1c(-c2ccc3c(c2)N(S(C)(=O)=O)CC3)c(C#N)c2ccc(OC)cc21 [Compound 752] | 198 to 202 | 0.5 to 2 | 
CCn1c(-c2ccc3c(c2)N(S(=O)(=O)CC)CC3)c(C#N)c2ccc(OC)cc21 [Compound 753, 1′-ethanesulfonyl-1-ethyl-6-methoxy-2′,3′-dihydro-1H,1H′-[2,6′]biindolyl-3-carbonitrile] | 157 to 161 | < 0.5 | 
CCn1c(-c2ccc(N)cc2)c(C#N)c2ccc(OC(C)C)cc21 [Compound 758] | 149 to 153 | < 0.5 | 
CCn1c(-c2ccc(NC(=O)CCc3ccccc3)cc2)c(C#N)c2ccc(OC(C)C)cc21 [Compound 762] | 190 to 193 | < 0.5 | 
CCn1c(-c2ccc(NC(=O)c3ccccc3)cc2)c(C#N)c2ccc(OC(C)C)cc21 [Compound 763] | 209.2 to 209.7 | < 0.5 | 
CCn1c(-c2ccc(NC(=O)c3ccc(F)cc3)cc2)c(C#N)c2ccc(OC(C)C)cc21 [Compound 764] | 213.5 to 231.7 |  | < 0.5
CCOc1ccc2c(C#N)c(-c3ccc(NC(=O)NCCCl)cc3)n(CC)c2c1 [Compound 774] | 205 to 206 |  | 0.5 to 2
COc1ccc2c(C#N)c(-c3cccc(N4CCCS4(=O)=O)c3)n(C(C)C)c2c1 [Compound 784] | 245 to 246 |  | 0.5 to 2
CCCS(=O)(=O)Nc1ccc(-c2c(C#N)c3cc(OC)ccc3n2CC)cc1 [Compound 789] | 154 to 156 |  | < 0.5
CCn1c(-c2ccc(NS(=O)(=O)C3CC3)cc2)c(C#N)c2cc(OC)ccc21 [Compound 791] | 149 to 152 |  | < 0.5
CCn1c(-c2ccc(NC(=O)OC)cc2)c(C#N)c2cc(OC)ccc21 [Compound 792] | 182 to 185 |  | < 0.5
CCOC(=O)Nc1ccc(-c2c(C#N)c3cc(OC)ccc3n2CC)cc1 [Compound 793] | 154 to 155 |  | < 0.5
CCCOC(=O)Nc1ccc(-c2c(C#N)c3cc(OC)ccc3n2CC)cc1 [Compound 794] | 149 to 151 |  | < 0.5
CCn1c(-c2ccc(NC(=O)OC(C)C)cc2)c(C#N)c2cc(OC)ccc21 [Compound 795] | 183 to 185 |  | < 0.5
CCn1c(-c2ccc(NC(=O)C3CCC3)cc2)c(C#N)c2ccc(OC)cc21 [Compound 801] | 199 to 219 |  | < 0.5
CCn1c(-c2ccc(NC(=O)Cc3ccccc3)cc2)c(C#N)c2ccc(OC)cc21 [Compound 802] | 196 to 198 |  | 0.5 to 2
CCn1c(-c2ccc(N3CCCC3=O)cc2)c(C#N)c2ccc(OC(F)F)cc21 [Compound 807] | 171 to 172 |  | < 0.5
C=CCNC(=O)Nc1cccc(-c2c(C#N)c3ccc(OC)cc3n2Cc2ccccc2)c1 [Compound 818] | 158 to 159 |  | < 0.5
CC(C)OC(=O)Nc1ccc(-c2c(C#N)c3ccc(OC(F)F)cc3n2C2CCC2)cc1 [Compound 822] | 144 to 145 |  | 0.5 to 2
CCCn1c(-c2ccc(NS(=O)(=O)C3CC3)cc2)c(C#N)c2ccc(OC(F)F)cc21 [Compound 827] | 189 to 191 |  | < 0.5
CCOc1ccc(-c2c(C#N)c3ccc(NS(C)(=O)=O)cc3n2CC)cc1 [Compound 834] | 179 to 180 |  | 0.5 to 2
CCCn1c(-c2ccc(NC(=O)NCCc3ccccc3)cc2)c(C#N)c2ccc(OC)cc21 [Compound 848] | 193 to 194 |  | 0.5 to 2
